# Measurements as given in PubChem BioAssay (NCI).
#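 How tested: cells in 96-well plates exposed to compound for 48 hours at five concentrations. TGI is the concentration that stops growth completely.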
# Experiments:
# Assay in all cases: inhibition of tumour cell growth, NCI panel, 48 h
# 786-0 renal = tested on: 786-0 renal
# A498 renal = tested on: A498 renal
# A549 NSCLC = tested on: A549 NSCLC
# ACHN renal = tested on: ACHN renal
# BT-549 breast = tested on: BT-549 breast
# CAKI-1 renal = tested on: CAKI-1 renal
# COLO 205 colon = tested on: COLO 205 colon
# DU-145 prostate = tested on: DU-145 prostate
# EKVX NSCLC = tested on: EKVX NSCLC
# HCC-2998 colon = tested on: HCC-2998 colon
# HCT-116 colon = tested on: HCT-116 colon
# HCT-15 colon = tested on: HCT-15 colon
# HL-60(TB) leukemia = tested on: HL-60(TB) leukemia
# HOP-62 NSCLC = tested on: HOP-62 NSCLC
# HOP-92 NSCLC = tested on: HOP-92 NSCLC
# HT29 colon = tested on: HT29 colon
# IGROV1 ovarian = tested on: IGROV1 ovarian
# K-562 leukemia = tested on: K-562 leukemia
# KM12 colon = tested on: KM12 colon
# LOX IMVI melanoma = tested on: LOX IMVI melanoma
# M14 melanoma = tested on: M14 melanoma
# MALME-3M melanoma = tested on: MALME-3M melanoma
# MCF7 breast = tested on: MCF7 breast
# MDA-MB-231 breast = tested on: MDA-MB-231 breast
# MDA-MB-435 = tested on: MDA-MB-435
# MDA-N = tested on: MDA-N
# MOLT-4 leukemia = tested on: MOLT-4 leukemia
# NCI-H226 lung = tested on: NCI-H226 lung
# NCI-H23 lung = tested on: NCI-H23 lung
# NCI-H522 lung = tested on: NCI-H522 lung
# NCI/ADR-RES ovarian = tested on: NCI/ADR-RES ovarian
# OVCAR-3 ovarian = tested on: OVCAR-3 ovarian
# OVCAR-4 ovarian = tested on: OVCAR-4 ovarian
# OVCAR-5 ovarian = tested on: OVCAR-5 ovarian
# OVCAR-8 ovarian = tested on: OVCAR-8 ovarian
# PC-3 prostate = tested on: PC-3 prostate
# RPMI-8226 leukemia = tested on: RPMI-8226 leukemia
# RXF 393 renal = tested on: RXF 393 renal
# SF-268 CNS = tested on: SF-268 CNS
# SF-295 CNS = tested on: SF-295 CNS
# SK-MEL-2 melanoma = tested on: SK-MEL-2 melanoma
# SK-MEL-28 melanoma = tested on: SK-MEL-28 melanoma
# SK-MEL-5 melanoma = tested on: SK-MEL-5 melanoma
# SK-OV-3 ovarian = tested on: SK-OV-3 ovarian
# SN12C renal = tested on: SN12C renal
# SNB-19 CNS = tested on: SNB-19 CNS
# SR leukemia = tested on: SR leukemia
# SW-620 colon = tested on: SW-620 colon
# T-47D breast = tested on: T-47D breast
# TK-10 renal = tested on: TK-10 renal
# U251 CNS = tested on: U251 CNS
# UACC-257 melanoma = tested on: UACC-257 melanoma
# UACC-62 melanoma = tested on: UACC-62 melanoma
# UO-31 renal = tested on: UO-31 renal
# CCRF-CEM leukemia = tested on: CCRF-CEM leukemia
# NCI-H460 lung = tested on: NCI-H460 lung
# SF-539 CNS = tested on: SF-539 CNS
# SNB-75 CNS = tested on: SNB-75 CNS
# HS 578T breast = tested on: HS 578T breast
smiles,measurement,setting,value
Oc1ccc2c3c1OC1c4[nH]c5c(c4CC4(O)C(C2)N(CC2CC2)CC[C@]314)CC1(O)C2Cc3ccc(O)c4c3[C@@]1(CCN2CC1CC1)C5O4 (stereo partly drawn),TGI,786-0 renal,46 µM
same,TGI,A498 renal,32.4 µM
same,TGI,A549 NSCLC,37.6 µM
same,TGI,ACHN renal,> 100 µM
same,TGI,BT-549 breast,> 100 µM
same,TGI,CAKI-1 renal,> 100 µM
same,TGI,COLO 205 colon,35.6 µM
same,TGI,DU-145 prostate,> 100 µM
same,TGI,EKVX NSCLC,99.3 µM
same,TGI,HCC-2998 colon,36.7 µM
same,TGI,HCT-116 colon,33 µM
same,TGI,HCT-15 colon,> 100 µM
same,TGI,HL-60(TB) leukemia,41.4 µM
same,TGI,HOP-62 NSCLC,> 100 µM
same,TGI,HOP-92 NSCLC,85 µM
same,TGI,HT29 colon,38.3 µM
same,TGI,IGROV1 ovarian,> 100 µM
same,TGI,K-562 leukemia,63.9 µM
same,TGI,KM12 colon,32.2 µM
same,TGI,LOX IMVI melanoma,83.2 µM
same,TGI,M14 melanoma,32 µM
same,TGI,MALME-3M melanoma,31.6 µM
same,TGI,MCF7 breast,> 100 µM
same,TGI,MDA-MB-231 breast,46.1 µM
same,TGI,MDA-MB-435,37.6 µM
same,TGI,MDA-N,38.9 µM
same,TGI,MOLT-4 leukemia,53.9 µM
same,TGI,NCI-H226 lung,88.7 µM
same,TGI,NCI-H23 lung,> 100 µM
same,TGI,NCI-H522 lung,49.3 µM
same,TGI,NCI/ADR-RES ovarian,> 100 µM
same,TGI,OVCAR-3 ovarian,35.8 µM
same,TGI,OVCAR-4 ovarian,90.5 µM
same,TGI,OVCAR-5 ovarian,74.9 µM
same,TGI,OVCAR-8 ovarian,> 100 µM
same,TGI,PC-3 prostate,> 100 µM
same,TGI,RPMI-8226 leukemia,60.8 µM
same,TGI,RXF 393 renal,82.2 µM
same,TGI,SF-268 CNS,49.4 µM
same,TGI,SF-295 CNS,40 µM
same,TGI,SK-MEL-2 melanoma,44.8 µM
same,TGI,SK-MEL-28 melanoma,41.4 µM
same,TGI,SK-MEL-5 melanoma,> 100 µM
same,TGI,SK-OV-3 ovarian,> 100 µM
same,TGI,SN12C renal,> 100 µM
same,TGI,SNB-19 CNS,64 µM
same,TGI,SR leukemia,57.5 µM
same,TGI,SW-620 colon,53.8 µM
same,TGI,T-47D breast,47.6 µM
same,TGI,TK-10 renal,44.6 µM
same,TGI,U251 CNS,34.6 µM
same,TGI,UACC-257 melanoma,37.4 µM
same,TGI,UACC-62 melanoma,43.7 µM
same,TGI,UO-31 renal,> 100 µM
O=C1C=Cc2c(I)sc(I)c21,TGI,786-0 renal,22.8 µM
same,TGI,A498 renal,> 100 µM
same,TGI,A549 NSCLC,> 100 µM
same,TGI,ACHN renal,> 100 µM
same,TGI,BT-549 breast,41.5 µM
same,TGI,CAKI-1 renal,33.3 µM
same,TGI,CCRF-CEM leukemia,18.3 µM
same,TGI,COLO 205 colon,36.8 µM
same,TGI,DU-145 prostate,> 100 µM
same,TGI,EKVX NSCLC,83.9 µM
same,TGI,HCC-2998 colon,35.3 µM
same,TGI,HCT-116 colon,33.1 µM
same,TGI,HCT-15 colon,34 µM
same,TGI,HOP-62 NSCLC,> 100 µM
same,TGI,HOP-92 NSCLC,33 µM
same,TGI,HT29 colon,68.4 µM
same,TGI,IGROV1 ovarian,31 µM
same,TGI,K-562 leukemia,56.8 µM
same,TGI,KM12 colon,50 µM
same,TGI,LOX IMVI melanoma,25.2 µM
same,TGI,M14 melanoma,75.8 µM
same,TGI,MALME-3M melanoma,33.4 µM
same,TGI,MCF7 breast,52.1 µM
same,TGI,MDA-MB-231 breast,68.8 µM
same,TGI,MDA-MB-435,62.1 µM
same,TGI,MDA-N,87.2 µM
same,TGI,MOLT-4 leukemia,42.3 µM
same,TGI,NCI-H226 lung,> 100 µM
same,TGI,NCI-H23 lung,36.7 µM
same,TGI,NCI-H460 lung,> 100 µM
same,TGI,NCI-H522 lung,6.97 µM
same,TGI,NCI/ADR-RES ovarian,67.7 µM
same,TGI,OVCAR-3 ovarian,39.7 µM
same,TGI,OVCAR-4 ovarian,52.6 µM
same,TGI,OVCAR-5 ovarian,94.6 µM
same,TGI,OVCAR-8 ovarian,42.3 µM
same,TGI,RXF 393 renal,40.3 µM
same,TGI,SF-268 CNS,32.7 µM
same,TGI,SF-295 CNS,> 100 µM
same,TGI,SF-539 CNS,57.2 µM
same,TGI,SK-MEL-2 melanoma,64.4 µM
same,TGI,SK-MEL-28 melanoma,44.6 µM
same,TGI,SK-MEL-5 melanoma,> 100 µM
same,TGI,SK-OV-3 ovarian,> 100 µM
same,TGI,SN12C renal,45.7 µM
same,TGI,SNB-75 CNS,87.4 µM
same,TGI,SR leukemia,27 µM
same,TGI,SW-620 colon,38.1 µM
same,TGI,T-47D breast,41.4 µM
same,TGI,TK-10 renal,68.5 µM
same,TGI,U251 CNS,33.3 µM
same,TGI,UACC-257 melanoma,53.5 µM
same,TGI,UACC-62 melanoma,> 100 µM
same,TGI,UO-31 renal,32.5 µM
O=C(CN1C(=O)c2ccccc2C1=O)OCC1CCCN2CCCCC12 (stereo not drawn),TGI,786-0 renal,> 100 µM
same,TGI,A498 renal,> 100 µM
same,TGI,A549 NSCLC,> 100 µM
same,TGI,ACHN renal,> 100 µM
same,TGI,BT-549 breast,> 100 µM
same,TGI,CAKI-1 renal,> 100 µM
same,TGI,CCRF-CEM leukemia,> 100 µM
same,TGI,COLO 205 colon,> 100 µM
same,TGI,DU-145 prostate,> 100 µM
same,TGI,EKVX NSCLC,> 100 µM
same,TGI,HCC-2998 colon,> 100 µM
same,TGI,HCT-116 colon,> 100 µM
same,TGI,HCT-15 colon,> 100 µM
same,TGI,HL-60(TB) leukemia,> 100 µM
same,TGI,HOP-92 NSCLC,> 100 µM
same,TGI,HS 578T breast,> 100 µM
same,TGI,HT29 colon,> 100 µM
same,TGI,K-562 leukemia,> 100 µM
same,TGI,KM12 colon,> 100 µM
same,TGI,LOX IMVI melanoma,> 100 µM
same,TGI,MALME-3M melanoma,> 100 µM
same,TGI,MCF7 breast,> 100 µM
same,TGI,MDA-MB-231 breast,> 100 µM
same,TGI,MDA-MB-435,> 100 µM
same,TGI,MDA-N,> 100 µM
same,TGI,MOLT-4 leukemia,> 100 µM
same,TGI,NCI-H226 lung,> 100 µM
same,TGI,NCI-H23 lung,> 100 µM
same,TGI,NCI-H460 lung,> 100 µM
same,TGI,NCI/ADR-RES ovarian,> 100 µM
same,TGI,OVCAR-4 ovarian,> 100 µM
same,TGI,OVCAR-8 ovarian,> 100 µM
same,TGI,PC-3 prostate,> 100 µM
same,TGI,RPMI-8226 leukemia,> 100 µM
same,TGI,RXF 393 renal,> 100 µM
same,TGI,SF-268 CNS,> 100 µM
same,TGI,SF-295 CNS,> 100 µM
same,TGI,SF-539 CNS,> 100 µM
same,TGI,SK-MEL-2 melanoma,> 100 µM
same,TGI,SK-MEL-28 melanoma,> 100 µM
same,TGI,SK-MEL-5 melanoma,> 100 µM
same,TGI,SK-OV-3 ovarian,> 100 µM
same,TGI,SN12C renal,> 100 µM
same,TGI,SNB-19 CNS,> 100 µM
same,TGI,SNB-75 CNS,> 100 µM
same,TGI,SW-620 colon,> 100 µM
same,TGI,T-47D breast,> 100 µM
same,TGI,TK-10 renal,> 100 µM
same,TGI,U251 CNS,> 100 µM
same,TGI,UACC-257 melanoma,> 100 µM
same,TGI,UACC-62 melanoma,> 100 µM
same,TGI,UO-31 renal,> 100 µM
O=C(/C=C/c1ccc2c(c1)OCO2)c1ccccc(=O)c1O,TGI,786-0 renal,> 100 µM
same,TGI,A498 renal,> 100 µM
same,TGI,ACHN renal,> 100 µM
same,TGI,BT-549 breast,47.6 µM
same,TGI,CAKI-1 renal,24.1 µM
same,TGI,CCRF-CEM leukemia,3.93 µM
same,TGI,COLO 205 colon,20.2 µM
same,TGI,DU-145 prostate,46.7 µM
same,TGI,EKVX NSCLC,> 100 µM
same,TGI,HCT-116 colon,> 100 µM
same,TGI,HCT-15 colon,> 100 µM
same,TGI,HOP-62 NSCLC,> 100 µM
same,TGI,HOP-92 NSCLC,72.9 µM
same,TGI,HS 578T breast,> 100 µM
same,TGI,HT29 colon,26.3 µM
same,TGI,IGROV1 ovarian,41.8 µM
same,TGI,K-562 leukemia,> 100 µM
same,TGI,KM12 colon,26.1 µM
same,TGI,LOX IMVI melanoma,> 100 µM
same,TGI,MALME-3M melanoma,60 µM
same,TGI,MDA-MB-231 breast,> 100 µM
same,TGI,MDA-MB-435,> 100 µM
same,TGI,MDA-N,> 100 µM
same,TGI,MOLT-4 leukemia,> 100 µM
same,TGI,NCI-H226 lung,> 100 µM
same,TGI,NCI-H460 lung,41.7 µM
same,TGI,NCI-H522 lung,63.4 µM
same,TGI,NCI/ADR-RES ovarian,14.2 µM
same,TGI,OVCAR-3 ovarian,> 100 µM
same,TGI,OVCAR-4 ovarian,> 100 µM
same,TGI,OVCAR-8 ovarian,54.2 µM
same,TGI,PC-3 prostate,> 100 µM
same,TGI,RPMI-8226 leukemia,> 100 µM
same,TGI,SF-268 CNS,35.9 µM
same,TGI,SK-MEL-2 melanoma,72.7 µM
same,TGI,SK-MEL-28 melanoma,90.4 µM
same,TGI,SK-MEL-5 melanoma,23 µM
same,TGI,SN12C renal,> 100 µM
same,TGI,SNB-19 CNS,51.8 µM
same,TGI,SNB-75 CNS,33.1 µM
same,TGI,SR leukemia,> 100 µM
same,TGI,SW-620 colon,> 100 µM
same,TGI,T-47D breast,64.6 µM
same,TGI,TK-10 renal,43.5 µM
same,TGI,U251 CNS,> 100 µM
same,TGI,UACC-257 melanoma,53.1 µM
same,TGI,UACC-62 melanoma,29.2 µM
same,TGI,UO-31 renal,> 100 µM
